Experiment [1] deals with nitrification. The experiment in a line: Table 1 summary: compounds found to work or not work as nitrification inhibitors, Inhib(%). To be noted: test and rate not given. Also on record: concentration or dose not given beside the values. As for the experimental part:
The phenotypic screening involved assessing the nitrification inhibition potency of the selected 5000 compounds against a key ammonia oxidizing bacterium responsible for ammonia oxidation in the soil, Nitrosomonas europaea, in 96-well microtiter plates. N. europaea cells were grown in the presence of an ammonium source, and the potential of putative nitrification inhibitors to inhibit the production of nitrite (NO2) was measured relative to untreated cells.
A summary of selected compounds initially found to either work or not work as nitrification inhibitors is detailed in Table 1 below.

Experiment [2] relates to Nitrosomonas europaea. Nature of the experiment: In vitro screening of nitrite production by Nitrosomonas europaea. It counts as cell-based. As for the experimental part: The phenotypic screening involved assessing the nitrification inhibition potency of the selected 5000 compounds against a key ammonia oxidizing bacterium responsible for ammonia oxidation in the soil, Nitrosomonas europaea, in 96-well microtiter plates. N. europaea cells were grown in the presence of an ammonium source, and the potential of putative nitrification inhibitors to inhibit the production of nitrite (NO2) was measured relative to untreated cells. […] Study 1-14

Experiment [3] has as its system nitrification in the soil. The experiment in a line: Soil column study with static gas chambers (Study 2-14): nitrate-N and N2O emissions. As for the experimental part: To determine the effect of treating the soil with 4-Ethynylanisole on nitrification rate and nitrous oxide emissions, soil column studies with static gas chambers were conducted. The experiment was conducted in cylindrical PVC containers (Diameter=186 mm, Height=240 mm). The containers were filled with soil to half of the container's height (120 mm), leaving 120 mm headspace. The soil was Templeton sandy loam collected from Lincoln University Research Dairy Farm. It was screened using a 5 mm sieve and air-dried to the required moisture level and packed to bulk density of 1 g/cm3.
(§1) The experiment was conducted under controlled conditions. The temperature of the soil columns were maintained at around 12° C. by using a water bath to control the temperature.
The treatments included Control (Water), Control (animal urine), Control (urine+DMSO), Control (urine+DCD at 10 kg/ha) and urine+4-Ethynylanisole (10 kg/ha) in DMSO. Synthetic cow urine was applied at 700 kg N/ha (comprising about 87% urea-N and 13% glycine-N), and 4-Ethynylanisole was applied at 10 kg/ha. There were two sets of cores for each treatment, one set were fitted with static gas chambers with removable lids for nitrous oxide sampling, and the other set used for soil sampling. The urine was sprayed to the surface of the soil simulating urine deposition by a grazing animal; DMSO, or DCD or 4-Ethynylanisole mixed with DMSO was also sprayed onto the urine treated soils to simulate the treatment of urine patches. Nitrous oxide gas measurements followed these treatments—as is detailed further below.
For the soil columns that were set up for taking soil samples for analysis of mineral nitrogen, the different treatments were mixed with the soil for soil sampling. Soil moisture was adjusted to 100% field capacity (FC) and maintained between 80 and 100% FC over the duration of the experiment.
Nitrous oxide (N2O) gas sampling was conducted twice a week using the standard procedure (Di et al., 2007). Vials were evacuated prior to sampling. Three gas samples were taken with 20 minute intervals between each sampling. Sampling frequency was reduced to once a week when N2O fluxes decreased in intensity.
Soil sampling was conducted on Day 1, 7, 14, 30, and 60. The soil samples were analysed for mineral nitrogen.

Experiment [4] concerns nitrification in the soil. The experiment in a line: Soil column study at low rates (Study 3-14): nitrate-N. To be noted: day 60. As for the experimental part:
To determine the effect of treating the soil with 4-Ethynylanisole at low rates, e.g. at 1 kg/ha and 2 kg/ha, soil column studies were conducted. The experiment was conducted in cylindrical PVC containers (Diameter=186 mm, Height=240 mm). The containers were filled with soil to half of the container's height (120 mm), leaving 120 mm headspace. The soil was Templeton sandy loam collected from Lincoln University Research Dairy Farm. It was screened using a 5 mm sieve and air-dried to the required moisture level and packed to bulk density of 1 g/cm3.
as §1
The treatments included Control (Water), Control (animal urine), Control (urine+DMSO), Control (Urine+DCD at 10 kg/ha), Urine+4-Ethynylanisole (at 1 kg/ha) in DMSO, and Urine+4-Ethynylanisole (at 2 kg/ha) in DMSO. Synthetic cow urine was applied at 700 kg N/ha (comprising about 87% urea-N and 13% glycine-N), and 4-Ethynylanisole was applied at 1 or 2 kg/ha equivalent. The treatments were mixed with the soil. Soil moisture was adjusted to 100% field capacity (FC) and maintained between 80 and 100% FC over the duration of the experiment. Soil sampling was conducted on Days 1, 7, 14, 30, and 60. The soil samples were analysed for mineral N.

The subject of experiment [5] is Bacillus subtilis. The experiment in a line: Antimicrobial susceptibility testing (MIC plate). Particulars: at concentrations used in soil to inhibit nitrification. It counts as cell-based. As for the experimental part: (§2) To determine if 4-Ethynylanisole specifically targets the ammonium oxidizing bacterium N. europaea we examined the antimicrobial properties of 4-Ethynylanisole against selected bacterial species. Bacteria were routinely grown in Lysogeny broth (LB) (E. coli and B. subtilis), LB-Tween (M. smegmatis), or Rhizobium defined media (G RDM) (M. loti […]). E. coli, B. subtilis, and M. smegmatis were grown overnight (18 hr) at 37° C. with shaking (200 rpm), whereas M. loti […] was grown for 48 hr statically at 28° C. 96-well microtiter plates used for the antimicrobial susceptibility testing were set up as follows; 200 μl of media (or as appropriate) was added to column […]) and 100 μl of media was added to the remaining wells of a polystyrene 96 well plate. 4-Ethynylanisole was added to column 1 at a concentration of 512 μM (or as required) and serially diluted 2-fold (100 μl transfer) into the neighbouring wells, making sure to discard 100 μl from the last well. Thus, resulting in a serial dilution of each compound. […] Plates were incubated at either 37° C., or 28° C. (with shaking as required) for 18-48 hr before determining the MIC.

Experiment [6] has as its system Escherichia coli. Nature of the experiment: Antimicrobial susceptibility testing (MIC plate). The class given is cell-based. To be noted: at concentrations used in soil to inhibit nitrification. As for the experimental part:
as §2

Experiment [7] relates to Mesorhizobium loti R7A. The experiment in a line: Antimicrobial susceptibility testing (MIC plate). It counts as cell-based. To be noted: at concentrations used in soil to inhibit nitrification. As for the experimental part:
as §2

Experiment [8] relates to Mycobacterium smegmatis. The experiment in a line: Antimicrobial susceptibility testing (MIC plate). It counts as cell-based. Particulars: at concentrations used in soil to inhibit nitrification. As for the experimental part: as §2

pIC50: −log10 of the molar value. Values after ≈ are worked out from the molar mass of the structure shown.

`C#Cc1ccc(OC)cc1` [4-Ethynylanisole, 1-ethynyl-4-methoxybenzene]: the “Inhib(%)” value in experiment [1] is listed as 100%. Further, the “rate of nitrite production (OD519 nm)” value in experiment [2] (1.56 μM to 400 μM) was “significantly reduced”. Moreover, in experiment [2] (Nitrosomonas europaea, read-out: IC50 (nitrite production reduced by half)), the negative logarithm of the IC50 (pIC50) is 5.62. For the same compound, in experiment [2] (Nitrosomonas europaea, read-out: Minimum Inhibitory Concentration (MIC) of nitrite production), the MIC is 25 to 50 µM (≈ 3.3 to 6.61 µg/mL). Besides, the “N2O—N emissions lower than urine alone control” value in experiment [3] (10 kg/ha sprayed to soil surface, soil column) came to 93.3%. For the same compound, the “soil nitrate-N concentration compared with urine control” value is “significantly lower nitrate-N concentrations” in experiment [3] (10 kg/ha, day 60) and “significantly lower nitrate-N concentrations” in experiment [4] (1 or 2 kg/ha). In experiment [3] (both at 10 kg/ha), the “nitrous oxide reduction compared with DCD” value is “much greater than that by DCD”. In addition, the “inhibiting nitrate production compared with DCD” value in experiment [3] (both at 10 kg/ha, day 60) is given as “much more potent than DCD”; in experiment [4] (1 or 2 kg/ha vs DCD at 10 kg/ha), “much more potent than DCD”. Moreover, the “inhibition of bacterial growth” value in experiment [5], in experiment [6], in experiment [7] and in experiment [8] was “did not inhibit” throughout.

These data come from patent publication US11578013B2, “Nitrification inhibitors” (Lincoln University, priority 2020, dated 2023).
